Patent publication US20250170099A1, “TREATMENT OF POSTNATAL DEPRESSION” (GH RESEARCH IRELAND LIMITED, priority 2022, published 2025)

Tested on: patients with postpartum depression (PPD)
Test: Open-label clinical trial of inhaled 5-MeO-DMT in postpartum depression (one patient, IDR 6 mg then 12 mg)
Protocol: The single-arm, open-label clinical trial will involve 15 adult female patients with clinically diagnosed postpartum depression (PPD).
The second dose (12 mg) will only be administered if: • a. […] The 6 mg dose was safe and well-tolerated according to the investigator, • c. Any psychoactive effects (PsE) of the prior dose have subsided, and • d. Pre-dose vital parameters and forced expiratory volume in one second (FEV1) are in normal range, or if outside of the normal range, are not clinically significant according to the investigator. • 3. Similarly, a third dose (18 mg) will only be administered if: • a. […] The 12 mg dose was safe and well-tolerated according to the investigator, and • c. Any PsE of the prior dose have subsided, and • d. Pre-dose vital parameters and forced expiratory volume in one second (FEV1) are in normal range, or if outside of the normal range, are not clinically significant according to the investigator.
The patients will be assessed for a peak psychedelic experience (based on a patient-scored visual analogue scale, the PE scale), sedation, and other endpoints after dosing. Follow-up visits are planned for Day 1, and Day 7 after the dosing day.

SMILES: COc1ccc2[nH]cc(CCN(C)C)c2c1 [5-MeO-DMT]
- MADRS apparent sadness improvement (2 hr): 5
- MADRS apparent sadness score (2 hr): 0
- MADRS concentration difficulties improvement (2 hr): 0
- MADRS concentration difficulties score (2 hr): 0
- MADRS inability to feel improvement (2 hr): 3
- MADRS inability to feel score (2 hr): 0
- MADRS inner tension improvement (2 hr): 5
- MADRS inner tension score (2 hr): 0
- MADRS lassitude improvement (2 hr): 3
- MADRS lassitude score (2 hr): 0
- MADRS pessimistic thoughts improvement (2 hr): 4
- MADRS pessimistic thoughts score (2 hr): 0
- MADRS reduced appetite improvement (2 hr): 0
- MADRS reduced appetite score (2 hr): 0
- MADRS reduced sleep improvement (2 hr): 0
- MADRS reduced sleep score (2 hr): 5
- MADRS reported sadness improvement (2 hr): 4
- MADRS reported sadness score (2 hr): 0
- MADRS suicidal thoughts improvement (2 hr): 0
- MADRS suicidal thoughts score (2 hr): 0
- adverse events (abdominal pain, headache) (Day 0): mild, short-lasting and resolved spontaneously
- BPRS anxiety improvement (Day 1): 6
- BPRS anxiety score (Day 1): 1
- BPRS blunted affect improvement (Day 1): 0
- BPRS blunted affect score (Day 1): 1
- BPRS conceptual disorganization improvement (Day 1): 0
- BPRS conceptual disorganization score (Day 1): 1
- BPRS depressive mood improvement (Day 1): 5
- BPRS depressive mood score (Day 1): 1
- BPRS disorientation improvement (Day 1): 0
- BPRS disorientation score (Day 1): 1
- BPRS emotional withdrawal improvement (Day 1): 4
- BPRS emotional withdrawal score (Day 1): 1
- BPRS excitement improvement (Day 1): 1
- BPRS excitement score (Day 1): 1
- BPRS grandiosity improvement (Day 1): 0
- BPRS grandiosity score (Day 1): 1
- BPRS guilt feelings improvement (Day 1): 5
- BPRS guilt feelings score (Day 1): 1
- BPRS hallucinatory behaviour improvement (Day 1): 0
- BPRS hallucinatory behaviour score (Day 1): 1
- BPRS hostility improvement (Day 1): 0
- BPRS hostility score (Day 1): 1
- BPRS mannerisms and posturing improvement (Day 1): 0
- BPRS mannerisms and posturing score (Day 1): 1
- BPRS motor retardation improvement (Day 1): 0
- BPRS motor retardation score (Day 1): 1
- BPRS somatic concern improvement (Day 1): 5
- BPRS somatic concern score (Day 1): 1
- BPRS suspiciousness improvement (Day 1): 0
- BPRS suspiciousness score (Day 1): 1
- BPRS tension score (Day 1): 1
- BPRS uncooperativeness improvement (Day 1): 0
- BPRS uncooperativeness score (Day 1): 1
- BPRS unusual thought content improvement (Day 1): 0
- BPRS unusual thought content score (Day 1): 1
- MADRS apparent sadness improvement (Day 1): 5
- MADRS apparent sadness score (Day 1): 0
- MADRS concentration difficulties improvement (Day 1): 0
- MADRS concentration difficulties score (Day 1): 0
- MADRS inability to feel improvement (Day 1): 3
- MADRS inability to feel score (Day 1): 0
- MADRS inner tension improvement (Day 1): 5
- MADRS inner tension score (Day 1): 0
- MADRS lassitude improvement (Day 1): 3
- MADRS lassitude score (Day 1): 0
- MADRS pessimistic thoughts improvement (Day 1): 4
- MADRS pessimistic thoughts score (Day 1): 0
- MADRS reduced appetite improvement (Day 1): 0
- MADRS reduced appetite score (Day 1): 0
- MADRS reduced sleep improvement (Day 1): 5
- MADRS reduced sleep score (Day 1): 0
- MADRS reported sadness improvement (Day 1): 4
- MADRS reported sadness score (Day 1): 0
- MADRS suicidal thoughts improvement (Day 1): 0
- MADRS suicidal thoughts score (Day 1): 0
- BIMF functional domain Adjustment score (Day 7): 6
- BIMF functional domain Infant Care score (Day 7): 12
- BIMF functional domain Management score (Day 7): 33
- BIMF functional domain Mother-Child Interaction score (Day 7): 17
- BIMF functional domain Psychological Well-being score (Day 7): 53
- BIMF functional domain Self-Care score (Day 7): 13
- BIMF functional domain Social Support score (Day 7): 18
- BIMF item 1 score (I am a good mother) (Day 7): 6
- BIMF item 2 score (I feel rested) (Day 7): 2
- BIMF item 3 score (I am comfortable with the way I've chosen to feed my baby) (Day 7): 6
- BIMF item 4 score (My baby and I understand each other) (Day 7): 5
- BIMF item 5 score (I am able to relax and enjoy time with my baby) (Day 7): 6
- BIMF item 6 score (There are people in my life that I can trust to care for my baby) (Day 7): 6
- BIMF item 8 score (I am getting enough adult interaction) (Day 7): 6
- BIMF item 9 score (I am getting enough encouragement from other people) (Day 7): 6
- BIMF item 10 score (I trust my own feelings (instincts)) (Day 7): 6
- BIMF item 11 score (I take a little time each week to do something for myself) (Day 7): 6
- BIMF item 12 score (I am taking good care of my baby's physical needs) (Day 7): 6
- BIMF item 13 score (I am taking good care of my physical needs) (Day 7): 5
- BIMF item 14 score (I make good descisions about my baby's health and well being) (Day 7): 6
- BIMF item 15 score (My baby and I are getting into a routine) (Day 7): 6
- BIMF item 16 score (I worry about how other people judge me) (Day 7): 5
- BIMF item 17 score (I am able to take care of my baby and my other responsibilites) (Day 7): 5
- BIMF item 18 score (Anxiety or worry often interferes with my mothering ability) (Day 7): 1
- BIMF item 19 score (As time goes on, I am getting better at taking care of my baby) (Day 7): 1
- BIMF item 20 score (I am satisfied with the job I am doing as a new mother) (Day 7): 5
- BPRS anxiety improvement (Day 7): 6
- BPRS anxiety score (Day 7): 1
- BPRS blunted affect improvement (Day 7): 0
- BPRS blunted affect score (Day 7): 1
- BPRS conceptual disorganization improvement (Day 7): 0
- BPRS conceptual disorganization score (Day 7): 1
- BPRS depressive mood improvement (Day 7): 5
- BPRS depressive mood score (Day 7): 1
- BPRS disorientation improvement (Day 7): 0
- BPRS disorientation score (Day 7): 1
- BPRS emotional withdrawal improvement (Day 7): 4
- BPRS emotional withdrawal score (Day 7): 1
- BPRS excitement improvement (Day 7): 1
- BPRS excitement score (Day 7): 1
- BPRS grandiosity improvement (Day 7): 0
- BPRS grandiosity score (Day 7): 1
- BPRS guilt feelings improvement (Day 7): 5
- BPRS guilt feelings score (Day 7): 1
- BPRS hallucinatory behaviour improvement (Day 7): 0
- BPRS hallucinatory behaviour score (Day 7): 1
- BPRS hostility improvement (Day 7): 0
- BPRS hostility score (Day 7): 1
- BPRS mannerisms and posturing improvement (Day 7): 0
- BPRS mannerisms and posturing score (Day 7): 1
- BPRS motor retardation improvement (Day 7): 0
- BPRS motor retardation score (Day 7): 1
- BPRS somatic concern improvement (Day 7): 5
- BPRS somatic concern score (Day 7): 1
- BPRS suspiciousness improvement (Day 7): 0
- BPRS suspiciousness score (Day 7): 1
- BPRS tension improvement (Day 7): 5
- BPRS tension score (Day 7): 1
- BPRS uncooperativeness improvement (Day 7): 0
- BPRS uncooperativeness score (Day 7): 1
- BPRS unusual thought content improvement (Day 7): 0
- BPRS unusual thought content score (Day 7): 1
- MADRS apparent sadness improvement (Day 7): 5
- MADRS apparent sadness score (Day 7): 0
- MADRS concentration difficulties improvement (Day 7): 0
- MADRS concentration difficulties score (Day 7): 0
- MADRS inability to feel improvement (Day 7): 3
- MADRS inability to feel score (Day 7): 0
- MADRS inner tension improvement (Day 7): 4
- MADRS inner tension score (Day 7): 1
- MADRS lassitude improvement (Day 7): 3
- MADRS lassitude score (Day 7): 0
- MADRS pessimistic thoughts improvement (Day 7): 4
- MADRS pessimistic thoughts score (Day 7): 0
- MADRS reduced appetite improvement (Day 7): 0
- MADRS reduced appetite score (Day 7): 0
- MADRS reduced sleep improvement (Day 7): 5
- MADRS reduced sleep score (Day 7): 0
- MADRS reported sadness improvement (Day 7): 4
- MADRS reported sadness score (Day 7): 0
- MADRS suicidal thoughts improvement (Day 7): 0
- MADRS suicidal thoughts score (Day 7): 0
- BIMF Adjustment % improvement (Day 7 vs Day 0): 20.00%
- BIMF Adjustment Δ (Day 7 vs Day 0): 1
- BIMF Infant Care % improvement (Day 7 vs Day 0): 0.00%
- BIMF Infant Care Δ (Day 7 vs Day 0): 0
- BIMF Management % improvement (Day 7 vs Day 0): 18%
- BIMF Management Δ (Day 7 vs Day 0): 5
- BIMF Mother-Child Interaction Δ (Day 7 vs Day 0): 2
- BIMF Psychological Well-being Δ (Day 7 vs Day 0): 9
- BIMF Self-Care % improvement (Day 7 vs Day 0): 44%
- BIMF Self-Care Δ (Day 7 vs Day 0): 4
- BIMF Social Support Δ (Day 7 vs Day 0): 1
- BIMF item 1 Δ (Day 7 vs Day 0): 0
- BIMF item 2 Δ (Day 7 vs Day 0): 2
- BIMF item 3 Δ (Day 7 vs Day 0): 0
- BIMF item 4 Δ (Day 7 vs Day 0): 0
- BIMF item 5 Δ (Day 7 vs Day 0): 1
- BIMF item 6 Δ (Day 7 vs Day 0): 0
- BIMF item 7 Δ (Day 7 vs Day 0): 0
- BIMF item 8 Δ (Day 7 vs Day 0): 0
- BIMF item 9 Δ (Day 7 vs Day 0): 1
- BIMF item 10 Δ (Day 7 vs Day 0): 1
- BIMF item 11 Δ (Day 7 vs Day 0): 1
- BIMF item 12 Δ (Day 7 vs Day 0): 0
- BIMF item 13 Δ (Day 7 vs Day 0): 1
- BIMF item 14 Δ (Day 7 vs Day 0): 0
- BIMF item 15 Δ (Day 7 vs Day 0): 1
- BIMF item 16 Δ (Day 7 vs Day 0): 2
- BIMF item 17 Δ (Day 7 vs Day 0): 0
- BIMF item 18 Δ (Day 7 vs Day 0): 1
- BIMF item 19 Δ (Day 7 vs Day 0): 1
- BIMF item 20 Δ (Day 7 vs Day 0): −1
- BIMF total score Δ (Day 7 vs Day 0): 13
- time to clinical remission (after administration): ≤ 2 h
- time to clinical response (after administration): ≤ 2 h
- BPRS anxiety improvement (discharge): 6
- BPRS anxiety score (discharge): 1
- BPRS blunted affect improvement (discharge): 0
- BPRS blunted affect score (discharge): 1
- BPRS conceptual disorganization improvement (discharge): 0
- BPRS conceptual disorganization score (discharge): 1
- BPRS depressive mood improvement (discharge): 5
- BPRS depressive mood score (discharge): 1
- BPRS disorientation improvement (discharge): 0
- BPRS disorientation score (discharge): 1
- BPRS emotional withdrawal improvement (discharge): 4
- BPRS emotional withdrawal score (discharge): 1
- BPRS excitement improvement (discharge): 1
- BPRS excitement score (discharge): 1
- BPRS grandiosity improvement (discharge): 0
- BPRS grandiosity score (discharge): 1
- BPRS guilt feelings improvement (discharge): 5
- BPRS guilt feelings score (discharge): 1
- BPRS hallucinatory behaviour improvement (discharge): 0
- BPRS hallucinatory behaviour score (discharge): 1
- BPRS hostility improvement (discharge): 0
- BPRS hostility score (discharge): 1
- BPRS mannerisms and posturing improvement (discharge): 0
- BPRS mannerisms and posturing score (discharge): 1
- BPRS motor retardation improvement (discharge): 0
- BPRS motor retardation score (discharge): 1
- BPRS somatic concern improvement (discharge): 5
- BPRS somatic concern score (discharge): 1
- BPRS suspiciousness improvement (discharge): 0
- BPRS suspiciousness score (discharge): 1
- BPRS tension score (discharge): 1
- BPRS uncooperativeness improvement (discharge): 0
- BPRS uncooperativeness score (discharge): 1
- BPRS unusual thought content improvement (discharge): 0
- BPRS unusual thought content score (discharge): 1
- vital parameters (shortly after administration): temporary, clinically non-relevant increase in heart rate and blood pressure
